Results from PubChem BioAssay AID248 (DTP/NCI, 2004).
Inconclusive results and toxic doses are left out. Cut-off read from the data, not from the text of the source: active = T/C of 150% or more; inactive = T/C below 125%.

System: L1210 leukemia ip in BDF1 mice, survival T/C
Assay: NCI In Vivo Anticancer Drug Screen. Data for tumor model L1210 Leukemia (intraperitoneal) in B6D2F1 (BDF1) mice
Settings: endpoint: mean survival time, higher = longer survival
Outline: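 Tumor was transplanted into mice, which were then dosed with test compound or vehicle alone. Survival was recorded for each group, and the treated figure was expressed relative to the control figure.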

[1] = dose: 100.0 mg/kg/injection, schedule: Q01DX009 (ip), vehicle: saline
[2] = dose: 100.0 mg/kg/injection, schedule: Q04DX003 (ip), vehicle: saline
[3] = dose: 200.0 mg/kg/injection, schedule: Q01DX009 (ip), vehicle: saline
[4] = dose: 200.0 mg/kg/injection, schedule: Q04DX003 (ip), vehicle: saline
[5] = dose: 100.0 mg/kg/injection, schedule: Q01DX001 (ip), vehicle: saline
[6] = dose: 200.0 mg/kg/injection, schedule: Q01DX001 (ip), vehicle: saline
[7] = dose: 400.0 mg/kg/injection, schedule: Q01DX001 (ip), vehicle: saline
[8] = dose: 100.0 mg/kg/injection, schedule: Q04DX003 (ip), vehicle: saline with Tween-80
[9] = dose: 200.0 mg/kg/injection, schedule: Q04DX003 (ip), vehicle: saline with Tween-80
[10] = dose: 100.0 mg/kg/injection, schedule: Q04DX003 (ip), vehicle: Klucel (hydroxypropylcellulose) (HPC)
[11] = dose: 200.0 mg/kg/injection, schedule: Q04DX003 (ip), vehicle: Klucel (hydroxypropylcellulose) (HPC)
[12] = dose: 400.0 mg/kg/injection, schedule: Q04DX003 (ip), vehicle: Klucel (hydroxypropylcellulose) (HPC)
[13] = dose: 400.0 mg/kg/injection, schedule: Q04DX003 (ip), vehicle: saline with Tween-80
[14] = dose: 100.0 mg/kg/injection, schedule: Q01DX009 (ip), vehicle: Klucel (hydroxypropylcellulose) (HPC)
[15] = dose: 200.0 mg/kg/injection, schedule: Q01DX009 (ip), vehicle: Klucel (hydroxypropylcellulose) (HPC)
[16] = dose: 400.0 mg/kg/injection, schedule: Q01DX009 (ip), vehicle: Klucel (hydroxypropylcellulose) (HPC)
[17] = dose: 50.0 mg/kg/injection, schedule: Q01DX001 (ip), vehicle: saline

Measured: T/C

C=CCNC(C)=O
inactive: [1] 97 % of control | [2] 98 % of control | [3] 97 % of control | [4] 97 % of control | dose: 400.0 mg/kg/injection, schedule: Q01DX009 (ip), vehicle: saline 97 % of control

Nc1ccc2c(c1)-c1ccc(F)cc1C2=O
inactive: dose: 100.0 mg/kg/injection, schedule: Q01DX001 (ip), vehicle: carboxymethylcellulose (CMC) 91 % of control | dose: 200.0 mg/kg/injection, schedule: Q01DX001 (ip), vehicle: carboxymethylcellulose (CMC) 91 % of control | dose: 400.0 mg/kg/injection, schedule: Q01DX001 (ip), vehicle: carboxymethylcellulose (CMC) 89 % of control

C/C=C\C(O)(C(=O)OC)c1ccccc1 (configuration not stated)
inactive: dose: 100.0 mg/kg/injection, schedule: Q01DX001 (ip), vehicle: other 105 % of control | [5] 97 % of control | dose: 200.0 mg/kg/injection, schedule: Q01DX001 (ip), vehicle: other 107 % of control | [6] 92 % of control | dose: 400.0 mg/kg/injection, schedule: Q01DX001 (ip), vehicle: other 107 % of control | [7] 92 % of control

Cc1c2oc3c(C)c(N)cc(C(=O)NC4C(=O)NC(C(C)C)C(=O)N5CCCC5C(=O)N(C)CC(=O)N(C)C(C(C)C)C(=O)OC4C)c3nc-2c(C(=O)NC2C(=O)NC(C(C)C)C(=O)N3CCCC3C(=O)N(C)CC(=O)N(C)C(C(C)C)C(=O)OC2C)c(N)c1=O (configuration not stated)
inactive: dose: 75.0 micrograms/kg/injection, schedule: Q01DX009 (ip), vehicle: saline + alcohol 121 % of control | dose: 150.0 micrograms/kg/injection, schedule: Q01DX009 (ip), vehicle: saline + alcohol 113 % of control | dose: 200.0 micrograms/kg/injection, schedule: Q01DX009 (ip), vehicle: saline + alcohol 102 % of control | dose: 300.0 micrograms/kg/injection, schedule: Q01DX009 (ip), vehicle: saline + alcohol 90 % of control | dose: 300.0 micrograms/kg/injection, schedule: Q04DX003 (ip), vehicle: saline + alcohol 119 % of control | dose: 800.0 micrograms/kg/injection, schedule: Q04DX003 (ip), vehicle: saline + alcohol 106 % of control | dose: 1200.0 micrograms/kg/injection, schedule: Q04DX003 (ip), vehicle: saline + alcohol 87 % of control

Cc1cc(C)c(O)c(CN(C)C)c1
inactive: [8] 101 % of control | [9] 98 % of control

Nc1nc(Cl)c(Cl)nc1N
inactive: [10] 95 % of control | [11] 100 % of control | [12] 95 % of control

O=C(O)Cn1c(=O)n(CC(=O)O)c2ccccc21
inactive: [8] 93 % of control | [9] 98 % of control | [13] 98 % of control

COC(=O)NC(C)(NC(=O)OC)C(=O)OC
inactive: dose: 100.0 mg/kg/injection, schedule: Q01DX009 (ip), vehicle: saline with Tween-80 104 % of control | dose: 200.0 mg/kg/injection, schedule: Q01DX009 (ip), vehicle: saline with Tween-80 106 % of control | dose: 400.0 mg/kg/injection, schedule: Q01DX009 (ip), vehicle: saline with Tween-80 97 % of control

O=C(c1ccc(Cl)cc1Cl)C(Cl)Cl
inactive: dose: 30.0 mg/kg/injection, schedule: Q01DX015 (ip), vehicle: saline 98 % of control | dose: 60.0 mg/kg/injection, schedule: Q01DX015 (ip), vehicle: saline 91 % of control | dose: 120.0 mg/kg/injection, schedule: Q01DX015 (ip), vehicle: saline 98 % of control

C[P+](c1ccc(Cl)cc1)(c1ccc(Cl)cc1)c1ccc(Cl)cc1
inactive: dose: 6.25 mg/kg/injection, schedule: Q04DX003 (ip), vehicle: saline 114 % of control | dose: 12.5 mg/kg/injection, schedule: Q04DX003 (ip), vehicle: saline 109 % of control | dose: 25.0 mg/kg/injection, schedule: Q04DX003 (ip), vehicle: saline 102 % of control

C=C(Br)CNC(=O)OC
inactive: dose: 25.0 mg/kg/injection, schedule: Q04DX003 (ip), vehicle: saline with Tween-80 100 % of control | dose: 50.0 mg/kg/injection, schedule: Q04DX003 (ip), vehicle: saline with Tween-80 105 % of control | [8] 121 % of control

CC(=O)N(C)c1ccc(C)cc1C
inactive: [8] 104 % of control | [9] 98 % of control | [13] 93 % of control

CCCCCCCCCCCCCCCC(C)(C)O
inactive: [14] 102 % of control | [10] 96 % of control | [15] 100 % of control | [11] 96 % of control | [16] 102 % of control | [12] 101 % of control

O=c1[nH]c(=O)n(C2CC=CO2)cc1F (configuration not stated)
inactive: [2] 111 % of control | [4] 113 % of control | dose: 400.0 mg/kg/injection, schedule: Q04DX003 (ip), vehicle: saline 117 % of control

Cc1cc2nc3c(=O)[nH]c(=O)nc-3n(CCOC(=O)CCC(=O)O)c2cc1C
inactive: [17] 116 % of control | [5] 103 % of control | [6] 114 % of control | [7] 103 % of control

O=C(Nc1cccc(O)c1)c1ccc([N+](=O)[O-])cc1
inactive: [14] 93 % of control | [15] 90 % of control | [16] 90 % of control

N#Cc1cccnc1
inactive: dose: 50.0 mg/kg/injection, schedule: Q01DX009 (ip), vehicle: saline 97 % of control | [1] 110 % of control | [8] 90 % of control | [3] 108 % of control | [9] 102 % of control | [13] 104 % of control

NC(N)=N/N=C/c1cccc(OCC(=O)O)c1
inactive: dose: 15.0 mg/kg/injection, schedule: Q01DX Z (ip), vehicle: carboxymethylcellulose (CMC) 87 % of control | dose: 30.0 mg/kg/injection, schedule: Q01DX Z (ip), vehicle: carboxymethylcellulose (CMC) 92 % of control | dose: 60.0 mg/kg/injection, schedule: Q01DX Z (ip), vehicle: carboxymethylcellulose (CMC) 92 % of control | dose: 60.0 mg/kg/injection, schedule: Q01DX Z (oral), vehicle: carboxymethylcellulose (CMC) 100 % of control | dose: 120.0 mg/kg/injection, schedule: Q01DX Z (ip), vehicle: carboxymethylcellulose (CMC) 94 % of control | dose: 120.0 mg/kg/injection, schedule: Q01DX Z (oral), vehicle: carboxymethylcellulose (CMC) 100 % of control | dose: 240.0 mg/kg/injection, schedule: Q01DX Z (oral), vehicle: carboxymethylcellulose (CMC) 94 % of control | dose: 480.0 mg/kg/injection, schedule: Q01DX Z (oral), vehicle: carboxymethylcellulose (CMC) 100 % of control

CC(=O)NCCCCC(N)C(=O)O (configuration not stated)
inactive: [17] 104 % of control | [5] 93 % of control | [6] 93 % of control | [7] 95 % of control

CCOC(=O)CC(CC[N+](=O)[O-])C(=O)OCC (configuration not stated)
inactive: dose: 50.0 mg/kg/injection, schedule: Q04DX002 (ip), vehicle: saline with Tween-80 108 % of control | [5] 109 % of control | dose: 100.0 mg/kg/injection, schedule: Q04DX002 (ip), vehicle: saline with Tween-80 89 % of control | [6] 110 % of control | dose: 200.0 mg/kg/injection, schedule: Q04DX002 (ip), vehicle: saline with Tween-80 96 % of control | [7] 97 % of control

CC12CCC(O)CC1CCC1C2CCC2(C)C(C(=O)CO)CCC12 (configuration not stated)
inactive: dose: 100.0 mg/kg/injection, schedule: Q01DX001 (sc), vehicle: steriod suspending solution 103 % of control | dose: 200.0 mg/kg/injection, schedule: Q01DX001 (sc), vehicle: steriod suspending solution 103 % of control | dose: 400.0 mg/kg/injection, schedule: Q01DX001 (sc), vehicle: steriod suspending solution 101 % of control

O=C(COc1cc(Cl)c(Cl)cc1Cl)NO
inactive: dose: 50.0 mg/kg/injection, schedule: Q01DX009 (ip), vehicle: Klucel (hydroxypropylcellulose) (HPC) 98 % of control | [14] 104 % of control | [10] 101 % of control | [15] 112 % of control | [11] 101 % of control

CN(C)CC/C(=N\N=C(N)N)c1ccccc1
inactive: dose: 15.0 mg/kg/injection, schedule: Q01DX Z (ip), vehicle: methylcellulose (MC) 96 % of control | dose: 30.0 mg/kg/injection, schedule: Q01DX Z (ip), vehicle: methylcellulose (MC) 90 % of control | dose: 30.0 mg/kg/injection, schedule: Q01DX Z (oral), vehicle: methylcellulose (MC) 89 % of control | dose: 60.0 mg/kg/injection, schedule: Q01DX Z (ip), vehicle: methylcellulose (MC) 94 % of control | dose: 60.0 mg/kg/injection, schedule: Q01DX Z (oral), vehicle: methylcellulose (MC) 91 % of control
